# Experimental data from ChEMBL document CHEMBL1201862, “PubChem BioAssay data set” (2004).
# Active and inactive are the calls of the source. Unless noted, the rule behind the calls is not given here.
# Tests used:
# [1] = biological target: T1, Interleukin-8 (Homo sapiens, UniProt P10145); assay: SAR analysis of GM-Tri-DAP induced IL-8 secretion in MCF-7/NOD1 cells - Set 2. [Related pubchem assays (depositor defined):AID1575, AID1578, AID2333]; format: functional, cell-based
# T1 sequence (P10145 whole entry): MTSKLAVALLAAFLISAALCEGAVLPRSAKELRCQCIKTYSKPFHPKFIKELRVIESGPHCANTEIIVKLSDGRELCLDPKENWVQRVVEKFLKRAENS
# [2] = biological target: T2, Nucleotide-binding oligomerization domain-containing protein 1 (Homo sapiens, UniProt Q9Y239); assay: SAR analysis of NF-kappaB dependent luciferase using DAP as an inducer - Set 2. [Related pubchem assays (depositor defined):AID1566, AID1575, AID1578, AID1579, AID1849, AID1852, AID2264]; format: functional
# T2 sequence (Q9Y239 whole entry): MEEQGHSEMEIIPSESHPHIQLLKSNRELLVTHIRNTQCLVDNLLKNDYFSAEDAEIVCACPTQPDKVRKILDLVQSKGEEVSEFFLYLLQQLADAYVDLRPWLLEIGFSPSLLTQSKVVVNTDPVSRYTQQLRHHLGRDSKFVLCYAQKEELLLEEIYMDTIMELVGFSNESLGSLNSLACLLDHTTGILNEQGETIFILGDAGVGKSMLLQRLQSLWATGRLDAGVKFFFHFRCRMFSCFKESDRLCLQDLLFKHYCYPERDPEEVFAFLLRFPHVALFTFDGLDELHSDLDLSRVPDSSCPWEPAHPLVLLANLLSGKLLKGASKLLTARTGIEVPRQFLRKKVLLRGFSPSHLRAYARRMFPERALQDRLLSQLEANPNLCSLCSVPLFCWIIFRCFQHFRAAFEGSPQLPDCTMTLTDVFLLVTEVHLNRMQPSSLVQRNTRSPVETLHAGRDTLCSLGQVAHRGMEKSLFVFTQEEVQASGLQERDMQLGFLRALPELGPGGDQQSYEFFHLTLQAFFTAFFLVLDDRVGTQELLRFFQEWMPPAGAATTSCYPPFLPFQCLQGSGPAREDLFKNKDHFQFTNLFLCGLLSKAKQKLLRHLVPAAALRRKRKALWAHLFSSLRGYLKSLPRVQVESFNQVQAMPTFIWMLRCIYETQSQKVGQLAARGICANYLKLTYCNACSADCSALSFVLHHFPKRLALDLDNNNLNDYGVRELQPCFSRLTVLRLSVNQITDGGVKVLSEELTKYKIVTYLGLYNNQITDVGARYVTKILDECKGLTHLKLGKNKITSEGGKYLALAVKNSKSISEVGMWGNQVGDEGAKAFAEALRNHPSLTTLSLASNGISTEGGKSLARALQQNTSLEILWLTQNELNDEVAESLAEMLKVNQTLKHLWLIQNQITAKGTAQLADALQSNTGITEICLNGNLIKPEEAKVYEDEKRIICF
# [3] = biological target: Nucleotide-binding oligomerization domain-containing protein 2 (Homo sapiens, UniProt Q9HC29); assay: inhibition of NOD2 signaling – set 2, SAR follow-up (AID 2475); format: functional
# [4] = test system: INS1; assay: INS-1E survival protection against cytokine death – cell-based, luminescence, retest, dose response (AID 449756); format: functional; conditions: Rattus norvegicus;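 also: cell death triggered by IL-1 beta plus TNF-alpha plus IFN-gamma mixture; protective hits raise ATP signal compared with cytokine alone wells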
# [5] = biological target: T2, Nucleotide-binding oligomerization domain-containing protein 1; assay: SAR analysis of compounds that inhibit NOD1 - Set 2. [Related pubchem assays (depositor defined):AID1566, AID1575, AID1578, AID1849, AID1852, AID2333, AID2335, AID2798]; format: functional
# Sequence of Nucleotide-binding oligomerization domain-containing protein 2 (Q9HC29 whole entry, the tested form may be a part): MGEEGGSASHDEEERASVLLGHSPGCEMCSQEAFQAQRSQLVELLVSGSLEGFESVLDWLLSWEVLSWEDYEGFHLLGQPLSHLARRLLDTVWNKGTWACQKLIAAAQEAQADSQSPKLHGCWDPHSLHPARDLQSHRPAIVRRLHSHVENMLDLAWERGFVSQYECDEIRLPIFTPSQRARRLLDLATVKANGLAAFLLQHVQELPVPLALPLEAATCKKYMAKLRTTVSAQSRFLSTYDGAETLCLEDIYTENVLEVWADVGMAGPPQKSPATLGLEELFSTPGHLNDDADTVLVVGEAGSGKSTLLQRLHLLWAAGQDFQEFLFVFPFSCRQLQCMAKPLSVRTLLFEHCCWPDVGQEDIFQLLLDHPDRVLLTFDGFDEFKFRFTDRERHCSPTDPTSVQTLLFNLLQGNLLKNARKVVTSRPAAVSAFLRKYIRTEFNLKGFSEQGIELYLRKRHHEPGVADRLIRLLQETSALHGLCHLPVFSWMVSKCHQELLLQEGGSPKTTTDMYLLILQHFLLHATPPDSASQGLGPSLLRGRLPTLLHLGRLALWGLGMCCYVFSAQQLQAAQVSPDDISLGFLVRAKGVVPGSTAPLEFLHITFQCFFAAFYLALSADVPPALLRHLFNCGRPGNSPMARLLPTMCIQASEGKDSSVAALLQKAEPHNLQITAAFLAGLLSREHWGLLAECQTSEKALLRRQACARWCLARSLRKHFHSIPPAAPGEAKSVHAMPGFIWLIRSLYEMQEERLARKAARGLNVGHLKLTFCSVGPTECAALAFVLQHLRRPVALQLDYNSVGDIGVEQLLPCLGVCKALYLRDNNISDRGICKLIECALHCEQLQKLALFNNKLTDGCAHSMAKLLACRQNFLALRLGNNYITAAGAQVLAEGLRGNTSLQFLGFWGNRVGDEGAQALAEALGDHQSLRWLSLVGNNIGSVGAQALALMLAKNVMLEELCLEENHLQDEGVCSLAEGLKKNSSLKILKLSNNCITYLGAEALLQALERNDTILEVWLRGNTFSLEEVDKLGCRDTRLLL
structure (smiles),measurement,setting,value
Cn1c(=O)[nH]c(=O)c2c1nc([N+](=O)[O-])n2Cc1ccccc1,IC50,[1],2160 nM (active)
same,IC50,[2],> 25000 nM (inactive)
same,IC50,[3],748 nM (active)
same,AC50,[4],7360 nM (active)
same,IC50,[5],785 nM (active)
